Like-named read-outs stand apart in the source and are kept apart here.
Assays:
[1] = target: T1, CCK receptor (brain, cerebral cortex) (Cavia porcellus, UniProt H0VZC5); test: biochemical; type: binding, Male Hartley guinea pigs; settings: guinea pig cerebral cortex, ^125 I-CCK-33, 25° C., 2 hours
T1 construct: Cerebral cortex was dissected and used as a receptor source; from tissue; host or cells: guinea pig cerebral cortex membranes (male Hartley)
T1 sequence (H0VZC5 1-426): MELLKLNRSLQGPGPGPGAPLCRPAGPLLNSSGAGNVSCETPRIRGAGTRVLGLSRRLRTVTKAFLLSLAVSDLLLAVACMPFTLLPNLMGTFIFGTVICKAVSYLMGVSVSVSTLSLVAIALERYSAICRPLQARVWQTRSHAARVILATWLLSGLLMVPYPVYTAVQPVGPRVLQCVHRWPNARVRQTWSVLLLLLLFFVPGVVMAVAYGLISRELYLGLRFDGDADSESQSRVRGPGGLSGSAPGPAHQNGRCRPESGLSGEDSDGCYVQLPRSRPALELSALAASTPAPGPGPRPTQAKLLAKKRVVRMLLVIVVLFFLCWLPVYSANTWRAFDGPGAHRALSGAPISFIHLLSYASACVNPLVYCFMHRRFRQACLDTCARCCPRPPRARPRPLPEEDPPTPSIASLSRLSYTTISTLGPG
Method: 2. CCK Recepto Binding (Brain)
CCK-33 was radiolabeled and the binding was Performed according to the description for the Pancreas method with modifications according to Saito et al., J. Neurochem.
Cerebral cortex was dissected and used as a receptor source. Each gram of fresh guinea pig brain tissue was homogenized in 10 ml of Tris/Trizma buffer with a Brinkman polytron PT-10. The homogenates were centrifuged at 42,000 g for 15 minutes. Pellets were resuspended in Tris Buffer, centrifuged as above and resuspended in 200 volumes of binding assay buffer (10 mM N-2-hydroxyethyl-piperazine-N'-2-ethane sulfonic acid (HEPES), 5 mM MgCl2, 0.25 mg/ml bacitracin, 1 mM ethylene glycol-bis-(β-aminoethylether-N,N'-tetraacetic acid) (EGTA), and 0.4% bovine serum albumin (BSA)). […] All assays were run in duplicate or triplicate. The reaction mixtures were incubated at 25° C. for 2 hours and centrifuged in a Beckman Microfuge (4 minutes) immediately after adding 1 ml of ice-cold incubation buffer. The supernatant was aspirated and discarded, pellets were counted with a Beckman gamma 5000.

[2] = target: T2, Gastrin receptor (gastric glands) (Cavia porcellus, UniProt H0VZC5); test: Gastrin Receptor Binding in Guinea Pig Gastric Glands; set-up: species or system guinea pig (male Hartley); settings: 25° C., 30 minutes
T2 construct: The washed guinea pig gastric glands prepared as above were resuspended; from tissue; host or cells: guinea pig gastric mucosal glands (male Hartley)
T2 sequence (H0VZC5 1-426): T1 sequence (H0VZC5 1-426)

[3] = ^125 I-gastrin, read-out: IC50 ^125 I-Gastrin Gastric Glands
[4] = IC50 ^125 I-Gastrin Gastric Glands
[5] = read-out: IC50 ^125 I-CCK Brain

In the case of `CN1C(=O)C(NC(=O)c2ccc(Cl)cc2)N=C(c2ccccc2F)c2ccccc21` (racemic) [Example 80, 1,3-Dihydro-1-methyl-3(RS)-(4-chlorophenylcarbonyl)-amino-5-(2-fluoroohenyl)-2H-1,4-benzodiazeoin-2-one], the IC50 ([1]; IC50 ^125 I-CCK Brain) is reported as 3.4 µM and the IC50 [2, 3] is reported as 2.9 µM.
For `O=C(NC1N=C(c2ccccc2F)c2ccccc2NC1=O)c1ccc(C(F)(F)F)cc1` (racemic) [Example 134, 1,3-Dihydro-5-(2-fluorophenyl)-3-(RS)-(p-trifluoro-methylbenzoylamino)-2H-1,4-benzodiazepin-2-one], the IC50 ([1]; IC50 ^125 I-CCK Brain) was 40 µM and the IC50 [2, 4] was 9.5 µM.
Molecule `O=C(NC1N=C(c2ccccc2F)c2ccccc2NC1=O)c1ccccc1` (racemic) [Example 173, 1,3-Dihydro-5-(2-fluorophenyl)-3(RS)-phenylcarbonylamino-2H-1,4-benzodiazepin-2-one] has an IC50 ([1]; IC50 ^125 I-CCK Brain) greater than 40 µM and an IC50 [2, 4] of 28 µM.
`O=C(NC1N=C(c2ccccc2)c2ccccc2NC1=O)c1ccc(O)cc1` (racemic) [Example 148, 1-3-Dihydro-3-(RS)-(p-Hydroxybenzoylamino)-5-phenyl-2H-1,4-benzodiazepin-2-one] gave an IC50 ([1]; IC50 ^125 I-CCK Brain) of 100 µM and an IC50 [2, 4] of 31 µM.
Molecule `CN(C)c1ccc(C(=O)NC2N=C(c3ccccc3F)c3ccccc3NC2=O)cc1` (racemic) [Example 152, 1,3-Dihydro-3(RS)-(p-dimethylaminobenzoylamino)-5-(2-fluorophenyl)-2H-1,4-benzodiazepin-2-one] has an IC50 ([1]; IC50 ^125 I-CCK Brain) greater than 100 µM and an IC50 [2, 4] greater than 100 µM.
Work on `O=C(NC1N=C(c2ccccc2)c2ccccc2NC1=O)c1ccc2ccccc2c1` (racemic) [Example 160, 1,3-Dihydro-3(RS)-(2-naphthoylamino)-5-phenyl-2H-1,4-benzodiazepin-2-one] yielded an IC50 ([1]; IC50 ^125 I-CCK Brain) of 12 µM and an IC50 [2, 4] of 14 µM.
With `O=C(Cc1c[nH]c2ccccc12)NC1N=C(c2ccccc2)c2ccccc2NC1=O` (racemic) [Example 76, 3(RS)-(3-indoleacetylamino)-1,3-dihydro-5-phenyl-2H-1,4-benzodiazepin-2-one] the IC50 ([1]; IC50 ^125 I-CCK Brain) was 11 µM and the IC50 [2, 4] was 32 µM.
`CN1C(=O)[C@@H](NC(=O)c2ccccc2I)N=C(c2ccccc2)c2ccccc21` [Example 283, (S)-N-(2,3-Dihydro-1-methyl-2-oxo-5-phenyl-1H-1,4-benzodiazepin-3-yl)-2-iodobenzamide] was tested, and the IC50 [1, 5] was 71 µM and the IC50 [2, 3] was 66 µM.
`O=C(Nc1ccc(Cl)cc1)NC1N=C(c2ccccc2F)c2ccccc2NC1=O` (racemic) [Example 182, 1,3-Dihydro-3(RS)-(4-chlorophenyl)aminocarbonylamino-5-(2-fluorophenyl)-2H-1,4-benzodiazepin-2-one] showed an IC50 ([1]; IC50 ^125 I-CCK Brain) of 0.3 µM and an IC50 [2, 4] of 0.26 µM.
For `CN1C(=O)C(N(C)C(=O)c2ccccc2Cl)N=C(c2ccccc2)c2ccccc21` (racemic) [Example 138, 3-(RS)-(N-(o-Chlorobenzoyl)-N-methylamino)-1,3-dihydro-1-methyl-5-phenyl-2H-1,4-benzodiazepin-2-one], the IC50 ([1]; IC50 ^125 I-CCK Brain) was 100 µM and the IC50 [2, 4] was greater than 100 µM.
With `O=C(NC1N=C(c2ccccc2F)c2ccccc2NC1=O)c1ccc([N+](=O)[O-])cc1` (racemic) [Example 106, 1,3-Dihydro-3-(RS)-(4-nitrophenlcarbonyl)amino-5-(2-fluorophenyl)-2H-1,4-benzodiazepin-2-one] the IC50 ([1]; IC50 ^125 I-CCK Brain) was greater than 50 µM and the IC50 [2, 4] was greater than 10 µM.
`O=C(NC1N=C(c2ccccc2)c2ccccc2NC1=O)c1cccc2ccccc12` (racemic) [Example 166, 1,3-Dihydro-3(RS)-(1-naphthoylamino)-5-phenyl-2H-1,4-benzodiazepin-2-one] gave an IC50 ([1]; IC50 ^125 I-CCK Brain) of 12 µM and an IC50 [2, 4] of 29 µM.
In the case of `CN1C(=O)C(NC(=O)c2cc3ccccc3[nH]2)N=C(c2ccccc2F)c2ccccc21` (racemic) [Example 81a, 1,3-Dihydro-5-(2-fluorophenyl)-3(RS)-(2-indolecarbonyl-amino)-1-methyl-2H-1,4-benzodiazepin-2-one], the IC50 ([1]; IC50 ^125 I-CCK Brain) is reported as 0.3 µM and the IC50 [2, 3] is reported as 0.19 µM.
For `Cc1ccc(C(=O)NC2N=C(c3ccccc3F)c3ccccc3NC2=O)cc1` (racemic) [Example 135, 1,3-Dihydro-5-(2-fluorophenyl)-3-(RS)-(p-methylbenzoylamino)-2H-1,4-benzodiazepin-2-one], the IC50 ([1]; IC50 ^125 I-CCK Brain) was greater than 40 µM and the IC50 [2, 4] was 5 µM.
Work on `O=C(NCC1CNc2ccccc2C(c2ccccc2F)=N1)c1ccsc1` (racemic) [Example 99, 1,3-Dihydro-3(RS)-[3'-(thiophene)carbonyl]amino-methyl-5-(2-fluorophenyl)-2H-1,4-benzodiazepine] yielded an IC50 ([1]; IC50 ^125 I-CCK Brain) of 74 µM and an IC50 [2, 4] of 80 µM.
`O=C(NC1N=C(c2ccccc2F)c2ccccc2N(C(=O)c2ccc(Cl)cc2)C1=O)c1ccc(Cl)cc1` (racemic) [Example 177, 1-(4-Chlorophenyl)carbonyl-1,3-dihydro-5-(2-fluorophenyl)-3(RS)-(4-chlorophenyl)carbonylamino-2H-1,4-benzodiazepin-2-one] was tested, and the IC50 ([1]; IC50 ^125 I-CCK Brain) was 3.7 µM and the IC50 [2, 4] was 0.55 µM.
With `O=C(NC1N=C(c2ccccc2)c2ccccc2NC1=O)c1cc(Cl)cc(Cl)c1` (racemic) [Example 147, 3-(RS)-(3,5-Dichlorobenzoylamino)1,3-dihydro-5-phenyl-2H-1,4-benzodiazepin-2-one] the IC50 ([1]; IC50 ^125 I-CCK Brain) was greater than 100 µM and the IC50 [2, 4] was 180 µM.
Work on `O=C(NC1N=C(c2ccccc2F)c2ccccc2NC1=O)c1cc2cc(Cl)ccc2[nH]1` (racemic) [Example 118, 1,3-Dihydro-3-(RS)-(5-Chloroindole-2-carbonylamino)-5-(2-fluorophenyl)-2H-1,4-benzodiazepin-2-one] yielded an IC50 ([1]; IC50 ^125 I-CCK Brain) of 38 µM and an IC50 [2, 4] greater than 10 µM.
`CN1C(=O)[C@@H](NC(=O)[C@@H](N)Cc2ccccc2)N=C(c2ccccc2)c2ccccc21` [Example 84a, 3(S)-(2(S)-amino-3-phenylpropanoylamino)-1,3-dihydro-1-methyl-5-phenyl-2H-1,4-benzodiazepin-2-one] gave an IC50 ([1]; IC50 ^125 I-CCK Brain) greater than 40 µM and an IC50 [2, 3] greater than 40 µM.
In the case of `CN1C(=O)[C@@H](NC(=O)[C@@H](Cc2ccccc2)NC(=O)OC(C)(C)C)N=C(c2ccccc2F)c2ccccc21` [Example 232, (S-(R*,S*))-(2-((5-(2-Fluorophenyl)-2,3-dihydro-1-methyl-2-oxo-1H-1,4-benzodiazepin-3-yl)amino)-2-oxo-1-(phenylmethyl)ethyl)-carbamic acid 1,1-dimethylethyl ester], the IC50 [1, 5] is reported as 1 µM and the IC50 [2, 3] is reported as 1.2 µM.
`O=C(NC1N=C(c2ccccc2)c2ccccc2NC1=O)c1cccc(SC(F)(F)F)c1` (racemic) [Example 155, 1,3-Dihydro-5-phenyl-3(RS)-(3-trifluoromethylthiobenzoylamino)-2H-1,4-benzodiazepin-2-one] gave an IC50 ([1]; IC50 ^125 I-CCK Brain) greater than 100 µM and an IC50 [2, 4] of 128 µM.
For `O=C(NC1N=C(c2ccccc2)c2ccccc2NC1=O)c1ccccc1Cl` (racemic) [Example 137, 3-(RS)-(o-Chlorobenzoylamino)-1,3-dihydro-5-phenyl-2H-1,4-benzodiazepin-2-one], the IC50 ([1]; IC50 ^125 I-CCK Brain) was greater than 40 µM and the IC50 [2, 4] was 52 µM.
`CCCc1ccc(C(=O)NC2N=C(c3ccccc3)c3ccccc3NC2=O)cc1` (racemic) [Example 163, 1,3-Dihydro-5-phenyl-3(RS)-(4-α-propylbenzoylamino)-2H-1,4-benzodiazepin-2-one] showed an IC50 ([1]; IC50 ^125 I-CCK Brain) of 12 µM and an IC50 [2, 4] of 80 µM.
Work on `CSc1ccc(C(=O)NC2N=C(c3ccccc3)c3ccccc3NC2=O)cc1` (racemic) [Example 143, 1,3-Dihydro-5-Phenyl-3-(RS)-(4'-methylthiobenzoylamino)-2H-1,4-benzodiazepin-2-one] yielded an IC50 ([1]; IC50 ^125 I-CCK Brain) of 23 µM and an IC50 [2, 4] of 8 µM.
`O=C(NCC1CNc2ccccc2C(c2ccccc2F)=N1)OCc1ccccc1` (racemic) [Example 98, 1,3-Dihydro-3(RS)-(benzyloxycarbonyl)aminomethyl-5-(2-fluorophenyl)-2H-1,4-benzodiazepine] showed an IC50 ([1]; IC50 ^125 I-CCK Brain) of 100 µM and an IC50 [2, 4] of 86 µM.
`CC(C)C[C@H](NC(=O)OC(C)(C)C)C(=O)N1CC(C[C@H]2N=C(c3ccccc3F)c3ccccc3NC2=O)c2ccccc21` (stereo partly drawn) [Example 23, 1,3-Dihydro-5-(2-fluorophenyl)-3(R)-[3'-α-(1'-t-Boc-L-leucyl)-indolenyl]methyl-2H-1,4-benzodiazepin-2-one] gave an IC50 ([1]; IC50 ^125 I-CCK Brain) greater than 100 µM.
Work on `CC(C)C[C@@H](NC(=O)OC(C)(C)C)C(=O)N1CC(C[C@H]2N=C(c3ccccc3F)c3ccccc3NC2=O)c2ccccc21` (stereo partly drawn) [Example 22, 1,3-Dihydro-5-(2-fluorophenyl)-3(R)-[3'-β-(1'-t-Boc-D-leucyl)-indolenyl]methyl-2H-1,4-benzodiazepin-2-one] yielded an IC50 ([1]; IC50 ^125 I-CCK Brain) greater than 100 µM.
